This note sets out measurements from patent US20250034170A1, “SMALL MOLECULE MODULATORS OF GLUCOCEREBROSIDASE ACTIVITY AND USES THEREOF” (Vanqua Bio, Inc., priority 2021, published 2025).

For the assay, the target named is T1, GCase (Homo sapiens, UniProt P04062).
T1 construct: endogenous in cells; host or cells: HeLa cells
T1 sequence (P04062 40-536): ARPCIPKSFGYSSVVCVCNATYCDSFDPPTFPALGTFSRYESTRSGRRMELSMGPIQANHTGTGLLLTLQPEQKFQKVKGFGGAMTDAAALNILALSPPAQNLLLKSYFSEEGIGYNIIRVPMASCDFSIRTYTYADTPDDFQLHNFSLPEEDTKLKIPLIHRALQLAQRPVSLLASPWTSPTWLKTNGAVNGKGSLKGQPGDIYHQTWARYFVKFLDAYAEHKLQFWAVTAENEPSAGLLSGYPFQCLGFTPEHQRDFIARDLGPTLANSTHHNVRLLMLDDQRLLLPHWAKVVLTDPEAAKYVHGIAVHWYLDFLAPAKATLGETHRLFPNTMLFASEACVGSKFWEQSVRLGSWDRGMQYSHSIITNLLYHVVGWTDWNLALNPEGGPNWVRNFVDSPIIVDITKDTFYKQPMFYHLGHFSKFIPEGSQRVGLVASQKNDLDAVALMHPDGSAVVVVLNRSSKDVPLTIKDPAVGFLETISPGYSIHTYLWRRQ
Description: activation of GCase in a live cell PFB assay in HELA cells. Type of assay: cell-based. How it is done:
Exemplary compounds were evaluated for activation of GCase in a live cell PFB assay in HELA cells (essentially as described in Ysselstein et al., “LRRK2 kinase activity regulates lysosomal glucocerebrosidase in neurons derived from Parkinson's disease patients” Nature Communications (2019) 10:5570). […] EC50 ranges: A: <10 μM; B: >10-50 μM; C: >50-100 μM; D: >100 μM.

Setting [1] is: activation of GCase, EC50 ranges.

Compound `O=C1N(c2ncc(C(F)(F)F)cc2Cl)CCC12CCN(c1cnc3cnn(CC(F)F)c3n1)CC2` [Cmpd 776] gave an EC50 under setting [1] of 10 to 50 µM.

Under setting [1], `Cc1cc(N2CC3(CCN(c4cnc5c(C)nn(CC(F)F)c5n4)C3)C2)nc(C)n1` [Cmpd 640] had an EC50 of 10 to 50 µM.

With `CCn1c(=O)n(CC(F)F)c2ncc(N3CCC4(CN(c5cc(C(F)(F)F)nc(C)n5)C4)C3)nc21` [Cmpd 1075], under setting [1], the 50% effective concentration (EC50) was in the range of 10 to 50 µM.

Under setting [1], `COCCN1CCC2(CCN(c3cnc4cnn(CC(F)F)c4n3)CC2)C1=O` [Compound 116, 8-[1-(2,2-difluoroethyl)-1H-pyrazolo[3,4-b]pyrazin-6-yl]-2-(2-methoxyethyl)-2,8-diazaspiro[4.5]decan-1-one] displayed a concentration giving a half-maximal response (EC50) of 10 to 50 µM.

For `FC(F)Cn1ncc2ncc(N3CC4(CCN(c5ncccc5C(F)(F)F)CC4)C3)nc21` [Compound 123, 2-[1-(2,2-difluoroethyl)-1H-pyrazolo[3,4-b]pyrazin-6-yl]-7-[3-(trifluoromethyl)pyridin-2-yl]-2,7-diazaspiro[3.5]nonane], under setting [1], the EC50 lay within 10 to 50 µM.

Take `Cc1cc(N2CC3(CCN(c4cnc5cnn(C6COC6)c5n4)C3)C2)cc(C(F)(F)F)n1` [Cmpd 1040]: the concentration for a half-maximal effect (EC50) under setting [1] is 10 to 50 µM.

Turning to `O=C1CC2(CCN(c3cnc4cnn(C5COC5)c4n3)CC2)CN1c1ccnc(C(F)(F)F)n1` [Cmpd 907], the EC50 under setting [1] is below 10 µM.

In turn, `O=C1N(c2cc(C(F)(F)F)ccn2)CCC12CCN(c1cncc(OCC(F)(F)F)n1)CC2` [Cmpd 244] displayed a half-maximal effective concentration (EC50) under setting [1] of 10 to 50 µM.

Compound `Cc1nc(N2CC3(CCN(c4ncc5c(C)nn(CC(C)(F)F)c5n4)C3)C2)cc(C(F)(F)F)n1` [Cmpd 1127] displayed an EC50 under setting [1] below 10 µM.

Turning to `FC(F)(F)c1cc(N2CC3(CCN(c4cncc(-c5nccs5)n4)C3)C2)ccn1` [Cmpd 1027], the concentration giving a half-maximal response (EC50) (EC50 given as range classes) lay in the range of 10 to 50 µM.

Under setting [1], `CCn1c(=O)n(CC(F)F)c2nc(N3CCC4(C3)CN(c3cnc(C)nc3C(F)(F)F)C4)ncc21` [Cmpd 1083] displayed an EC50 of 10 to 50 µM.

Regarding `Cc1nn(CC(F)F)c2nc(N3CCC4(CCN(c5ccc(C(F)(F)F)nc5)C4)CC3)cnc12` [Cmpd 257], the EC50 under setting [1] is below 10 µM.

In turn, `FC(F)Cn1ncc2ncc(N3CC[C@@]4(CCN(c5cnc(C(F)(F)F)nc5)C4)C3)nc21` [Cmpd 1132] yielded an EC50 under setting [1] of 10 to 50 µM.

As to `FC(F)Cn1ncc2ncc(N3CCCC4(CCN(c5ccc(C(F)(F)F)cn5)CC4)C3)nc21` [Cmpd 218], the EC50 (EC50 given as range classes) fell in the range of 10 to 50 µM.

Take `Fc1cnc(N2CCC3(CCN(c4cnc5cnn(CC(F)F)c5n4)CC3)C2)cc1C(F)(F)F` [Cmpd 740]: the half-maximal effective concentration (EC50) under setting [1] is below 10 µM.

On to `O=C(c1ccc(C(F)(F)F)nc1)N1CCC2(CCN(c3cnc4cnn(CC(F)F)c4n3)CC2)C1` [Cmpd 313], for which, under setting [1], the EC50 was 10 to 50 µM.

Under setting [1], `CCN1C(=O)N(c2ccc(C(F)(F)F)nc2)C(=O)C12CCN(c1ncc3cnn(CC(F)F)c3n1)CC2` [Cmpd 873] registered an EC50 of 10 to 50 µM.

As for `Cc1nc(N2CCC3(CCN(c4nc5c(cnn5CC(F)F)c(=O)n4CC4CC4)CC3)C2)cc(C(F)(F)F)n1` [Cmpd 1108], the EC50 under setting [1] was below 10 µM.

Compound `Cc1nn(CC(F)F)c2nc(N3CCC4(CN(c5cnc(C(F)(F)F)nc5)C4)C3)cnc12` [Cmpd 429] yielded an EC50 (EC50 given as range classes) above 100 µM.

`Cc1nn(CC(F)F)c2nc(N3CCC4(CC3)CC(=O)N(c3cncc(C(F)(F)F)n3)C4)cnc12` [Cmpd 280] came in with an EC50 under setting [1] of 10 to 50 µM.

For `FC(F)(F)c1cc(N2CC3(CCN(c4cncc(-c5nncs5)n4)C3)C2)ccn1` [Cmpd 425], the EC50 (EC50 given as range classes) lay in the range of 50 to 100 µM.

In turn, `FC(F)Cn1ncc2ncc(N3CCCC4(CC(Oc5cnccc5C(F)(F)F)C4)C3)nc21` (stereo not drawn) [Compound 10, 6-[1-(2,2-difluoroethyl)-1H-pyrazolo[3,4-b]pyrazin-6-yl]-2-{[4-(trifluoromethyl)pyridin-3-yl]oxy}-6-azaspiro[3.5]nonane] came in with a 50% effective concentration (EC50) under setting [1] below 10 µM.

`Cc1nn(CC(F)F)c2nc(N3CCC4(CCN(c5ccnc(C(F)(F)F)c5)C4=O)C3)ncc12` (stereo not drawn) [Cmpd 515]: the half-maximal effective concentration (EC50) under setting [1] is below 10 µM.

Compound `Cc1nn(C2COC2)c2nc(N3CCC4(CCN(c5cnc(C(F)(F)F)nc5)C4)C3)ncc12` (stereo not drawn) [Cmpd 536] had a concentration giving a half-maximal response (EC50) under setting [1] below 10 µM.

Under setting [1], `FC(F)(F)Cn1ncc2ncc(N3CCC4(CC3)CN(c3cc(C(F)(F)F)ccn3)C4)nc21` [Cmpd 477] gave an EC50 below 10 µM.

Under setting [1], `FC(F)Cn1ncc2ncc(N3CCC4(CC3)CN(c3ccc(C(F)(F)F)nc3)C4)nc21` [Compound 66, 7-[1-(2,2-difluoroethyl)-1H-pyrazolo[3,4-b]pyrazin-6-yl]-2-[6-(trifluoromethyl)pyridin-3-yl]-2,7-diazaspiro[3.5]nonane] gave an EC50 below 10 µM.

Compound `FC(F)(F)c1ncc(N2CC3(CCN(c4cnc5cnn(C6CCCCO6)c5n4)C3)C2)cn1` (stereo not drawn) [Cmpd 470] displayed a half-maximal effective concentration (EC50) under setting [1] of 10 to 50 µM.

Compound `O=C(c1ccc(OC(F)(F)F)cc1)N1CC2(CCN(c3cnc4cnn(CC(F)F)c4n3)C2)C1` [Cmpd 370] showed an EC50 under setting [1] of 10 to 50 µM.

Under setting [1], `O=C1CC2(CCN(c3cnc4cnn(CC(F)F)c4n3)CC2)CN1Cc1cncc(C(F)(F)F)c1` [Cmpd 335] came in with a concentration for a half-maximal effect (EC50) of 10 to 50 µM.

Under setting [1], `FC(F)Cn1ncc2ncc(NC3CCC4(CC3)CN(c3cccc(C(F)(F)F)n3)C4)nc21` [Compound 130, N-[1-(2,2-difluoroethyl)-1H-pyrazolo[3,4-b]pyrazin-6-yl]-2-[6-(trifluoromethyl)pyridin-2-yl]-2-azaspiro[3.5]nonan-7-amine] displayed an EC50 of 10 to 50 µM.

Consider `O=C1CC2(CN(c3cnc4cnn(C5COC5)c4n3)C2)CN1c1ccnc(C(F)(F)F)c1` [Cmpd 348], for which the EC50 under setting [1] lay in the range of 10 to 50 µM.

Under setting [1], `Cc1nc2cnn(CC(F)F)c2nc1N1CCC2(CN(c3cnc(C(F)(F)F)nc3)C2)C1` [Cmpd 1036] gave an EC50 above 100 µM.

For the compound `O=C1CC2(CCN(c3cnc4cnn(C5COC5)c4n3)CC2)CN1c1ccc(C(F)(F)F)nc1` [Cmpd 856], the concentration giving a half-maximal response (EC50) under setting [1] lay within 10 to 50 µM.

The compound `Cc1nc(N2CCC3(CCN(c4ccc5cnn(CC(F)F)c5n4)CC3)C2)cc(C(F)(F)F)n1` [Cmpd 625] registered a concentration for a half-maximal effect (EC50) (EC50 given as range classes) below 10 µM.

`O=C(c1ccc(C(F)(F)F)cc1)N1CC2(CCN(c3cnc4cnn(CC(F)F)c4n3)C2)C1` [Cmpd 377]: the EC50 under setting [1] is above 100 µM.

`CCN1C(=O)N(c2cnc3cnn(CC(F)F)c3n2)C(=O)C12CCN(c1ccc(C(F)(F)F)cn1)CC2` [Cmpd 860] came in with a 50% effective concentration (EC50) under setting [1] of 10 to 50 µM.

`C[C@H]1CN(c2cnc3cnn(CC(F)F)c3n2)CC[C@@]12CCN(c1cccc(C(F)(F)F)n1)C2=O` (racemic) [Cmpd 669] returned an EC50 under setting [1] of 10 to 50 µM.

`Cc1cc(N2CC3(CCN(c4cnc5cnn(CC(F)F)c5n4)CC3)C2)nc(C(F)(F)F)n1` [Cmpd 527]: the EC50 under setting [1] is below 10 µM.

Under “EC50 given as range classes”, `O=C1CC2(CN1c1ccc(C(F)(F)F)cn1)C1CC2CN(c2cnc3cnn(CC(F)F)c3n2)C1` (stereo not drawn) [Cmpd 802] registered a concentration for a half-maximal effect (EC50) of 10 to 50 µM.

Compound `Cc1nc(N2CCC3(CCN(c4cnc5c(C)nn(CC(F)F)c5n4)CC3)C2)cc(C(F)(F)F)n1` [Cmpd 575] showed an EC50 under setting [1] above 100 µM.

As for `FC(F)Cn1ncc2ncc(N3CCC4(CC3)CC(Oc3cc(C(F)(F)F)ccn3)C4)nc21` [Cmpd 705], under setting [1], the 50% effective concentration (EC50) was 10 to 50 µM.

Regarding `O=C1N(c2ccc(C(F)(F)F)nc2)C(=O)C2(CCN(c3cnc4cnn(CC(F)F)c4n3)CC2)N1CCC1CC1` [Cmpd 880], the EC50 under setting [1] is below 10 µM.

For `FC(F)Cn1ncc2ncc(N3CC4(CC(COc5ccc(C(F)(F)F)nc5)C4)C3)nc21` [Compound 133, 2-[1-(2,2-difluoroethyl)-1H-pyrazolo[3,4-b]pyrazin-6-yl]-6-({[6-(trifluoromethyl)pyridin-3-yl]oxy}methyl)-2-azaspiro[3.3]heptane], under setting [1], the EC50 was below 10 µM.

In the case of `Cc1cc(N2CC3(CCN(c4cnc5c(C)nn(C6COC6)c5n4)C3)C2)nc(C)n1` [Cmpd 645], the concentration giving a half-maximal response (EC50) under setting [1] lay in the range of 10 to 50 µM.

`Cc1nn(CC(F)(F)F)c2nc(N3CCC4(CCN(c5cnc(C(F)(F)F)nc5)C4)C3)cnc12` (stereo not drawn) [Cmpd 603]: the EC50 (EC50 given as range classes) was 10 to 50 µM.

Take `Cc1nc(N2CC3(CCN(c4cnc5cnn(CC(F)(F)F)c5n4)C3)C2)cc(C(F)(F)F)n1` [Cmpd 499]: the 50% effective concentration (EC50) under setting [1] was below 10 µM.

Take `O=C1N(c2nccc(C(F)(F)F)n2)CCC12CCN(c1cnc3cnn(CC(F)F)c3n1)CC2` [Cmpd 773]: under setting [1], the EC50 is below 10 µM.

Turning to `Cc1nc(N2CC[C@]3(CCN(c4ncc5c(C)nn(C6COC6)c5n4)C3)C2)cc(C(F)(F)F)n1` [Cmpd 1079], the concentration giving a half-maximal response (EC50) under setting [1] was 10 to 50 µM.

Where the note is “EC50 given as range classes”, `Cc1cnc(N2CCC3(CCN(c4cnc5cnn(CC(F)F)c5n4)CC3)C2)nc1C(F)(F)F` [Cmpd 785] showed a concentration giving a half-maximal response (EC50) above 100 µM.

Take `FC(F)Cn1ncc2ncc(N3CCC4(CN(c5ccnc(OC(F)F)c5)C4)C3)nc21` [Cmpd 452]: the concentration giving a half-maximal response (EC50) under setting [1] is below 10 µM.

Regarding `Cc1nn(CC(F)F)c2nc(N3CCC4(CCN(c5ccnc(C(F)(F)F)c5)C4=O)C3)cnc12` (stereo not drawn) [Cmpd 514], under setting [1], the 50% effective concentration (EC50) is below 10 µM.

Under setting [1], `FC(F)Cn1ncc2ncc(N3CCC4(CN(c5cnc(C(F)F)nc5)C4)C3)nc21` [Cmpd 958] displayed an EC50 below 10 µM.

`O=C1CC2(CCN(c3ccc(C(F)(F)F)nc3)C2)CN1c1cnc2cnn(CC(F)F)c2n1` (stereo not drawn) [Cmpd 507] had a half-maximal effective concentration (EC50) under setting [1] below 10 µM.

As to `Cc1nc(N2CCC3(CCN(c4ncc5cnn(CC(F)F)c5n4)C3)C2)cc(C(F)(F)F)n1` (stereo not drawn) [Cmpd 540], the concentration giving a half-maximal response (EC50) under setting [1] lay within 10 to 50 µM.
